These results are taken from patent publication US20250034515A1, “Method of Production of Organoids and Uses Thereof” (Université de Strasbourg, priority 2021, published 2025).

The test deals with Aspc-1 cells. Put plainly: Viability of pancreatic cancerous 3D organoids in liquid pearls (Calcein-AM / propidium iodide, Celigo image cytometry). Type of test: cell-based, human. As to conditions: AsPC-1 organoids in liquid pearls; Gemcitabine 80 μM. How it is done: FIG. 4. Effects of an ethanolic plant extract on 3D cultured cells viability. Pancreatic cancer cells seeded at 10^5 cells/mL were injected and grown in liquid pearls at a volume of 150 μL for 24 hours, then exposed to ethanolic extract #138-10D (80 μg/ml), vehicle or Gemcitabine (80 μM). After 24 hours of incubation, the cells were labeled (Calcein-AM=green-living cells and propidium iodide=red-dead cells). The composite image of the two channels was analyzed by imaging cytometry.
In a first step, medium filling the pearls is prepared using DMEMhigh glucose complete medium supplemented by 1.2% of methylcellulose solution (MC) at a ratio of 4 to 1. For spheroid generation, 150 μL of pearls medium were dispensed onto fumed silica-coated 6-well plates, then Aspc-1 cells, at a density of 10,000 cells/mL, were directly injected into each pearl. The injected pearls were then incubated in a humidified incubator at 37 C° and 5% CO2.
After 24 hours, 50 μL of complete medium containing the different extracts (final concentration 80 μg/mL) were injected into each pearl and incubated for an additional 48 hours. […] Pearls containing cancerous organoids were finally analyzed on Celigo image cytometer (Cyntellect Inc, San Diego, CA, USA).

In the case of `Nc1ccn([C@@H]2O[C@H](CO)[C@@H](O)C2(F)F)c(=O)n1` [Gemcitabine], the “activity on AsPC-1 cells (3D cultured cells viability)” value is listed as “only active on AsPC-1 cells at a concentration of 80 μM”.
